Where two headings read alike, the source gives them in different places.
Columns and labels:
THP1 macrophages = experiment: LPS (Klebsiella pneumoniae) activation of THP1 macrophages, MCP1 and TNFα secretion (HTRF); assay type: cell-based, human; conditions: 24 h, then LPS Klebsiella 6 h; for inhibition at 1 µM / inhibition at 10 µM: Homo sapiens; for inhibition at 1 µM: THP-1, 1 μM; for inhibition at 10 µM: THP-1, 10 μM
Procedure: In order to test the efficacy of the compounds on macrophage activation and pro-inflammatory cytokine production, 2.5×10^4 THP-1 cells were cultured in a 384-well plate and treated with 100 ng/mL PMA (#P8139, Sigma) for 24 h to induce differentiation into macrophages.
Then, medium was removed and FBS-deprived medium containing 1 or 10 μM compound was added for 24 h. Finally, THP1 macrophages were stimulated for 6 h with 100 ng/mL LPS (Klebsiella pneumoniae, #L4268, Sigma-Aldrich).
Monocyte chemoattractant protein 1 (MCP1) and Tumor necrosis α (TNFα) were measured in cell supernatants by Homogeneous Time Resolved Fluorescence (HTRF, #62[…] for TNFα, and 62HCCL2PEG for MCP1, Cisbio). Fluorescence was measured with Infinite 500 (#30019337, Tecan) to determine the concentration of cytokines.
In order to evaluate the effect of the compounds according to the invention on LPS-induced cytokines production by macrophages, the percentage of inhibition over the vehicle condition were calculated for each compound at 1 and 10 μM.

HepG2 cells = experiment: Staurosporin-induced apoptosis in HepG2 cells, caspase 3/7 activity; assay type: cell-based, human; conditions: 16 h pre-treatment, then 10 μM staurosporin 4 h; for % Inhibition of caspase activity over mean Veh.: 0.3 μM; for inhibition at 0.3 µM: Homo sapiens, HepG2, 0.3 μM, read-out: % Inhibition of caspase activity over mean Veh.
Procedure: In order to evaluate the effect of the compounds on human hepatocytes that undergo a cellular stress induced by staurosporin, the human hepatoblastoma-derived HepG2 cell line (ECACC, #85011430, Sigma-Aldrich) was cultured in high-glucose DMEM medium (#41965, Gibco, France) supplemented with 10% of fetal bovine serum (FBS, #10270, Gibco), 1% penicillin/streptomycin (#15140, Gibco), 1% sodium pyruvate (#11360, Gibco) and 1% MEM non-essential amino acids (#11140, Gibco) in a 5% CO2 incubator at 37° C.
To evaluate caspase 3/7 activity, which is a surrogate marker of apoptosis, 1.5×10^4 cells were plated in a 384-well plate (#781080, Greiner, France). After cell adherence (8 hours), cells were serum starved for 16 h in the presence of 0.3 μM of compounds or vehicle. Cpd.1 was also used at 3 and 10 μM. Thereafter, cells were treated with 10 μM staurosporin (#569397, Sigma-Aldrich, Germany) supplemented with compound for additional 4 hours before cell lysis and caspase activity measurement.
Caspase 3/7 activity was measured using Caspase Glow™ 3/7 assay (#G8093, Promega, USA). Luminescence was measured using a Spark microplate reader (#30086376, Tecan, USA). The amount of luminescence (RLU) directly correlates with caspase 3/7 activity.

[1] = test system: LPS/GaIN acute liver failure, C57BL/6J mice; experiment: LPS/GalN model of acute liver failure in mice, hepatic gene expression, serum cytokines and albumin; assay type: in vivo, mouse; conditions: mouse serum, 1 mg/kg/day oral 3 days before LPS/GaIN, 4 h after injection
[2] = test system: LPS-induced endotoxemia, Sprague Dawley rats; experiment: LPS-induced endotoxemia in rats, hepatic markers and serum TNFα; assay type: in vivo; conditions: rat, 100 mg/kg/day oral 3 days before LPS, 3 h after LPS
[3] = read-out: % inhibition of MCP1 secretion over mean Veh.
[4] = read-out: % inhibition of TNFα secretion over mean Veh.

Structure (SMILES): Cc1cc(CCC(=O)c2ccc(OC(F)(F)F)cc2)cc(C)c1OC(C)(C)C(=O)O [Cpd. 2, 2-[2,6-dimethyl-4-[3-[4-(trifluoromethyloxy)phenyl]-3-oxo-propyl]phenoxy]-2-methylpropanoic acid]
- inhibition at 1 µM (THP1 macrophages; [3]): 96%

Structure (SMILES): Cc1cc(CCC(=O)c2ccc(C(F)(F)F)cc2)cc(C)c1OC(C)(C)C(=O)O [Cpd. 3, 2-[2,6-dimethyl-4-[3-[4-(trifluoromethyl)phenyl]-3-oxo-propyl]phenoxy]-2-methylpropanoic acid]
- inhibition at 1 µM (THP1 macrophages; [3]): 90%
- inhibition at 1 µM (THP1 macrophages; [4]): 0%
- inhibition at 10 µM (THP1 macrophages; [4]): 11 to 58%

Structure (SMILES): COC(CCc1cc(C)c(OC(C)(C)C(=O)O)c(C)c1)c1ccc(SC)cc1 (stereo not drawn) [Cpd. 4, 2-[2,6-dimethyl-4-[3-[4-(methylthio)phenyl]-3-methoxypropyl]phenoxy]-2-methylpropanoic acid]
- % inhibition of MCP1 secretion over mean Veh. (THP1 macrophages; 10 μM, 10 µM): 110%
- inhibition at 1 µM (THP1 macrophages; [3]): 100%
- % Inhibition of caspase activity over mean Veh. (HepG2 cells): 32%
- inhibition at 0.3 µM (HepG2 cells): 26 to 79%

Structure (SMILES): CSc1ccc(C(CCc2cc(C)c(OC(C)(C)C(=O)O)c(C)c2)OC(C)C)cc1 (stereo not drawn) [Cpd. 5, 2-[2,6-dimethyl-4-[3-[4-(methylthio)phenyl]-3-isopropyloxypropyl]phenoxy]-2-methylpropanoic acid]
- inhibition at 1 µM (THP1 macrophages; [3]): 93%

Structure (SMILES): Cc1cc(CCC(O)c2ccc(OC(F)(F)F)cc2)cc(C)c1OC(C)(C)C(=O)O (stereo not drawn) [Cpd. 6, 2-(4-(3-hydroxy-3-(4-(trifluoromethoxy)phenyl)propyl)-2,6-dimethylphenoxy)-2-methylpropanoic acid]
- inhibition at 1 µM (THP1 macrophages; [3]): 94%
- inhibition at 0.3 µM (HepG2 cells): 26 to 79%

Structure (SMILES): CON=C(CCc1cc(C)c(OC(C)(C)C(=O)O)c(C)c1)c1ccc(OC(F)(F)F)cc1 [Cpd. 7, 2-(4-(3-(methoxyimino)-3-(4-(trifluoromethoxy)phenyl)propyl)-2,6-dimethylphenoxy)-2-methylpropanoic acid]
- inhibition at 1 µM (THP1 macrophages; [3]): 95%
- inhibition at 1 µM (THP1 macrophages; [4]): 25%

Structure (SMILES): CCOC(CCc1ccc(OC(C)(C)C(=O)O)c(Cl)c1Cl)c1sc(-c2ccc(C(F)(F)F)cc2)nc1C (stereo not drawn) [Cpd. 9, 2-(2,3-dichloro-4-(3-ethoxy-3-(4-methyl-2-(4-(trifluoromethyl)-phenyl)thiazol-5-yl)propyl)phenoxy)-2-methylpropanoic acid]
- inhibition at 1 µM (THP1 macrophages; [3]): 86%
- inhibition at 1 µM (THP1 macrophages; [4]): 3%

Structure (SMILES): COC(CCc1cc(C)c(OC(C)(C)C(=O)O)c(C)c1)c1ccc(C(F)(F)F)cc1 (stereo not drawn) [Cpd. 13, 2-(4-(3-methoxy-3-(4-(trifluoromethyl)phenyl)propyl)-2,6-dimethylphenoxy)-2-methylpropanoic acid]
- % inhibition of MCP1 secretion over mean Veh. (THP1 macrophages; 10 μM, 10 µM): 111%
- % inhibition of TNFα secretion over mean Veh. (THP1 macrophages; 10 μM, 10 µM): 18%
- inhibition at 1 µM (THP1 macrophages; [3]): 99%
- inhibition at 1 µM (THP1 macrophages; [4]): 0%
- inhibition at 10 µM (THP1 macrophages; [4]): 11 to 58%
- % Inhibition of caspase activity over mean Veh. (HepG2 cells): 79%

Structure (SMILES): COC(CCc1cc(C)c(OC(C)(C)C(=O)O)c(C)c1)c1ccc(Br)cc1 (stereo not drawn) [Cpd. 14, 2-[2,6-dimethyl-4-[3-[4-bromophenyl]-3-methoxypropyl]phenoxy]-2-methylpropanoic acid]
- inhibition at 1 µM (THP1 macrophages; [3]): 91%
- inhibition at 1 µM (THP1 macrophages; [4]): 18%

Structure (SMILES): CC(C)(Oc1ccc(CCNC(=O)c2ccc(Cl)cc2)cc1)C(=O)O [Cpd. 17, bezafibrate, reference compound]
- inhibition at 1 µM (THP1 macrophages; [3]): 22%
- inhibition at 10 µM (THP1 macrophages; [3]): 54 to 132%

Structure (SMILES): CC[C@@H](Oc1cccc(CN(CCCOc2ccc(OC)cc2)c2nc3ccccc3o2)c1)C(=O)O [Cpd. 18, pemafibrate, reference compound]
- decrease of circulating IL10 level compared to vehicle [1]: 52%
- serum albumin level [1]: restore albumin concentration

Structure (SMILES): CC(C)OC(=O)C(C)(C)Oc1ccc(C(=O)c2ccc(Cl)cc2)cc1 [Cpd. 19, fenofibrate]
- reduction of LPS-induced serum TNFα level [2]: 85%
- restoration of serum albumin concentration compared to vehicle [2]: 79%

Structure (SMILES): CCO[C@H](COc1ccc(C(F)(F)F)cc1)CSc1ccc(OCC(=O)O)c(C)c1.NCCCC[C@H](N)C(=O)O.O.O [Cpd. 20, seladelpar lysine, reference compound]
- % inhibition of MCP1 secretion over mean Veh. (THP1 macrophages; 1 μM): 105%

Structure (SMILES): CCc1ccc(CCOc2ccc(CC3SC(=O)NC3=O)cc2)nc1 (stereo not drawn) [Cpd. 21, pioglitazone, reference compound]
- inhibition at 1 µM (THP1 macrophages; [3]): 80%
- inhibition at 1 µM (THP1 macrophages; [4]): 0%
- inhibition at 10 µM (THP1 macrophages; [4]): 11 to 58%

Structure (SMILES): CN(CCOc1ccc(CC2SC(=O)NC2=O)cc1)c1ccccn1 (stereo not drawn) [Cpd. 22, rosiglitazone, reference compound]
- % inhibition of MCP1 secretion over mean Veh. (THP1 macrophages; 1 μM): 79%
- % inhibition of TNFα secretion over mean Veh. (THP1 macrophages; 1 μM): 36%
- % inhibition of MCP1 secretion over mean Veh. (THP1 macrophages; 10 μM, 10 µM): 117%
- % inhibition of TNFα secretion over mean Veh. (THP1 macrophages; 10 μM, 10 µM): 11%

Structure (SMILES): O=C(O)CCCc1cc2cc(Cl)ccc2n1S(=O)(=O)c1ccc2ncsc2c1 [Cpd. 23, lanifibranor, reference compound]
- inhibition at 1 µM (THP1 macrophages; [3]): 100%
- inhibition at 1 µM (THP1 macrophages; [4]): 15%

From US20240216312A1, “PPAR-AGONISTS FOR USE IN THE TREATMENT OF LIVER FAILURE” (Genfit, priority 2021, published 2024)
